# In the supplement of paper PMC10331698:
# ± gives the standard deviation of the averaged measurements.
# Assays:
# Assay in all cases: level (log10 ratio to DMSO vehicle control); higher = higher biomarker level / cell amount than vehicle control
# Settings in all cases: in DMSO
# [1] = compound: O=C(O)C(F)(F)C(F)(F)C(F)(F)C(F)(F)C(F)(F)C(F)(F)C(F)(F)C(F)(F)Cl [9-Chloro-perfluorononanoic acid]
# Procedure: (§1)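 BioMAP Diversity Plus panel of 12 human primary cell co-culture systems (3C, 4H, LPS, SAg, BT, BF4T, BE3C, CASM3C, HDF3CGF, KF3CT, MyoF, Mphg). Compounds were added 1 h before stimulation and left for 24 h (MyoF 48 h; BT 72 h for soluble read-outs or 6 d for IgG). Biomarkers were read by ELISA, cytotoxicity by SRB, PBMC viability and proliferation by Alamar Blue. Each well value was divided by the mean of 8 DMSO control wells on the same plate and log10 transformed; duplicate blinded samples were tested at 4 concentrations.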
# [2] = compound: O=C(O)C(F)(F)OC(F)(F)C(F)(F)OC(F)(F)C(F)(F)C(F)(F)C(F)(F)F [Perfluoro-3,6-dioxadecanoic acid]
# Procedure: as §1
# [3] = compound: O=C(O)C(F)(F)C(F)(F)C(F)(F)C(F)(F)C(F)(F)C(F)(F)C(F)(F)C(F)(F)C(F)(F)C(F)(F)C(F)(F)C(F)(F)F [Perfluorotridecanoic acid]
# Procedure: as §1
# [4] = compound: O=C(O)C(F)(F)C(F)(F)C(F)(F)C(F)(F)C(F)(F)C(F)(F)C(F)(F)C(F)(F)C(F)(F)C(F)(F)C(F)(F)C(F)(F)C(F)(F)F [Perfluorotetradecanoic acid]
# Procedure: as §1
# [5] = compound: O=S(=O)(O)C(F)(F)C(F)(F)C(F)(F)C(F)(F)C(F)(F)C(F)(F)C(F)(F)C(F)(F)F [Potassium perfluorooctanesulfonate]
# Procedure: as §1
# [6] = compound: CCCCCCCCC(F)(F)C(F)(F)C(F)(F)C(F)(F)C(F)(F)C(F)(F)F [1-(Perfluorohexyl)octane]
# Procedure: as §1
# [7] = compound: O=C(O)C(F)(F)C(F)(F)C(F)(F)C(=O)O [Hexafluoroglutaric acid]
# Procedure: as §1
Test System,level (log10) ([1]; 6700 nM),level (log10) ([1]; 20000 nM),level (log10) ([2]; 6700 nM),level (log10) ([2]; 20000 nM),level (log10) ([2]; 60000 nM),level (log10) ([3]; 1500 nM),level (log10) ([3]; 4400 nM),level (log10) ([3]; 13000 nM),level (log10) ([3]; 40000 nM),level (log10) ([4]; 6700 nM),level (log10) ([4]; 20000 nM),level (log10) ([5]; 6700 nM),level (log10) ([5]; 20000 nM),level (log10) ([5]; 60000 nM),level (log10) ([6]; 6700 nM),level (log10) ([6]; 20000 nM),level (log10) ([7]; 6700 nM),level (log10) ([7]; 20000 nM),level (log10) ([7]; 60000 nM)
KF3CT:CXCL8/IL-8,0.0015 ± 0.021,-0.0025 ± 0.0035,-0.019 ± 0.011,-0.0145 ± 0.00071,-0.103 ± 0.014,-0.0035 ± 0.04,-0.009 ± 0.037,-0.006 ± 0.033,-0.0315 ± 0.06,0.0005 ± 0.013,0.0245 ± 0.025,-0.006 ± 0.017,-0.0045 ± 0.0092,-0.0185 ± 0.015,0.009 ± 0.0085,0.021 ± 0.0057,-0.0115 ± 0.025,-0.006 ± 0.0057,-0.0135 ± 0.0021
3C:CCL2/MCP-1,0.015 ± 0.054,-0.0065 ± 0.037,0.002 ± 0.0099,0.013 ± 0.0057,0.0195 ± 0.023,0.0135 ± 0.0078,-0.021 ± 0.0014,-0.001 ± 0.0085,0.0035 ± 0.0035,0.0125 ± 0.012,0.0085 ± 0.018,-0.056 ± 0.098,-0.0125 ± 0.0035,0.009 ± 0.02,-0.008 ± 0.0014,0.0205 ± 0.023,-0.0005 ± 0.0035,0.0095 ± 0.0035,0.028 ± 0.018
KF3CT:CCL2/MCP-1,0.004 ± 0.023,0.036 ± 0.035,-0.0115 ± 0.018,-0.014 ± 0.0071,-0.08 ± 0.0042,0.003 ± 0.076,-0.007 ± 0.02,-0.021 ± 0.031,0.018 ± 0.0042,0.004 ± 0.0071,0.0205 ± 0.0078,-0.009 ± 0.011,-0.012 ± 0.0014,0.001 ± 0.05,0.0005 ± 0.023,0.036 ± 0.033,-0.0255 ± 0.04,-0.0325 ± 0.067,-0.0245 ± 0.0021
CASM3C:IL-6,-0.0115 ± 0.00071,-0.0325 ± 0.019,-0.0205 ± 0.005,-0.0205 ± 0.0021,-0.0085 ± 0.03,0.005 ± 0.062,-0.047 ± 0.0028,-0.059 ± 0.028,-0.0815 ± 0.08,0.002 ± 0.051,0.0135 ± 0.094,-0.025 ± 0.0042,-0.0285 ± 0.016,-0.0425 ± 0.083,-0.019 ± 0.031,0.0205 ± 0.023,-0.0175 ± 0.0035,-0.015 ± 0.021,0.022 ± 0.082
3C:CD141/Thrombomodulin,-0.017 ± 0.016,-0.008 ± 0.02,-0.014 ± 0.048,-0.0345 ± 0.039,-0.016 ± 0.04,-0.0075 ± 0.059,-0.0355 ± 0.079,-0.042 ± 0.065,-0.0505 ± 0.071,-0.0165 ± 0.036,-0.024 ± 0.042,0.007 ± 0.018,-0.0055 ± 0.033,0.041 ± 0.0071,0.0125 ± 0.015,-0.0105 ± 0.018,-0.018 ± 0.017,-0.014 ± 0.011,-0.034 ± 0.0099
KF3CT:CXCL9/MIG,0.0025 ± 0.0092,-0.0015 ± 0.0021,-0.0095 ± 0.0064,-0.002 ± 0.0028,-0.005 ± 0.0085,-0.002 ± 0.0071,-0.0015 ± 0.005,-0.0035 ± 0.0064,-0.0685 ± 0.079,-0.0065 ± 0.016,0.0055 ± 0.00071,-0.0065 ± 0.0035,0.003 ± 0.0042,0.008 ± 0.027,0.0085 ± 0.013,0.001 ± 0.0057,-0.007 ± 0.0014,-0.0075 ± 0.0064,-0.0065 ± 0.0021
CASM3C:CD141/Thrombomodulin,-0.0175 ± 0.022,-0.0225 ± 0.025,-0.022,-0.0225 ± 0.00071,0.0315 ± 0.046,0.0215 ± 0.11,-0.0185 ± 0.084,0.03 ± 0.062,0.193 ± 0.015,0.0555 ± 0.064,0.056 ± 0.044,0.0235 ± 0.0021,-0.004 ± 0.018,-0.021 ± 0.031,-0.0145 ± 0.00071,-0.0165 ± 0.03,-0.008 ± 0.0099,-0.0175 ± 0.0021,0.043 ± 0.065
lMphg:CD106/VCAM-1,-0.011 ± 0.0099,-0.016 ± 0.0071,-0.004 ± 0.018,-0.0055 ± 0.021,-0.0585 ± 0.039,-0.018 ± 0.0014,-0.0305 ± 0.012,-0.0715 ± 0.018,-0.384 ± 0.1,-0.0325 ± 0.028,-0.017 ± 0.0014,-0.012 ± 0.018,0.0015 ± 0.005,-0.038 ± 0.017,-0.0105 ± 0.012,-0.035 ± 0.017,0.0045 ± 0.011,-0.005 ± 0.0057,-0.0255 ± 0.00071
HDF3CGF:CCL2/MCP-1,0.0205 ± 0.022,-0.013 ± 0.021,0.0135 ± 0.018,-0.017 ± 0.0071,-0.043 ± 0.0014,0.0155 ± 0.043,-0.039 ± 0.082,-0.018 ± 0.018,-0.0145 ± 0.015,0.0235 ± 0.016,0.0285 ± 0.029,0.002 ± 0.011,-0.003 ± 0.0042,0.001 ± 0.017,-0.0185 ± 0.005,-0.004 ± 0.013,-0.01 ± 0.0028,-0.0215 ± 0.012,-0.005 ± 0.0042
MyoF:SRB,-0.004,-0.0605 ± 0.005,0,-0.002,-0.0515 ± 0.0092,0.0015 ± 0.0064,0.002 ± 0.0014,0.0005 ± 0.0021,0.002 ± 0.0042,0.0025 ± 0.0021,0.0055 ± 0.0078,-0.001 ± 0.011,-0.0085 ± 0.0035,-0.0145 ± 0.016,0.011 ± 0.016,0.006 ± 0.0042,0.0015 ± 0.00071,-0.002 ± 0.0085,-0.0045 ± 0.0092
HDF3CGF:TIMP-1,-0.028 ± 0.027,-0.0105 ± 0.056,-0.0085 ± 0.00071,0.006 ± 0.11,0.0755 ± 0.083,0.027 ± 0.028,-0.0075 ± 0.044,-0.023 ± 0.069,-0.04 ± 0.051,0.014 ± 0.037,-0.0385 ± 0.11,0.001 ± 0.024,-0.001 ± 0.016,0.097 ± 0.061,0.0105 ± 0.039,-0.0185 ± 0.03,-0.0385 ± 0.026,-0.02 ± 0.072,-0.045 ± 0.073
CASM3C:Serum Amyloid A,0.001 ± 0.016,0.0285 ± 0.011,0.012 ± 0.025,-0.004 ± 0.023,0.0405 ± 0.0021,0.0495 ± 0.086,0.074 ± 0.052,0.181 ± 0.075,0.157 ± 0.11,0.033 ± 0.048,-0.007 ± 0.014,0.0085 ± 0.026,0.001 ± 0.03,0.0125 ± 0.057,-0.02 ± 0.0057,0.0055 ± 0.066,0.0395 ± 0.049,0.027 ± 0.018,0.0085 ± 0.019
MyoF:MMP-1,-0.028 ± 0.03,-0.0585 ± 0.0064,-0.003 ± 0.0085,-0.03 ± 0.024,0.0505 ± 0.0064,-0.0005 ± 0.021,0.018 ± 0.016,-0.025 ± 0.0099,0.014 ± 0.02,-0.0305 ± 0.015,0.002 ± 0.017,-0.04 ± 0.021,-0.047 ± 0.031,0.0305 ± 0.044,-0.002 ± 0.017,-0.01 ± 0.0085,0 ± 0.0085,-0.0115 ± 0.012,-0.008 ± 0.014
HDF3CGF:Collagen III,-0.0835 ± 0.046,-0.235 ± 0.061,-0.024 ± 0.044,-0.0885 ± 0.035,-0.286 ± 0.045,-0.057 ± 0.083,-0.27 ± 0.037,-0.261 ± 0.034,-0.224 ± 0.078,-0.114 ± 0.057,-0.094 ± 0.13,-0.013 ± 0.0099,-0.0525 ± 0.042,-0.106 ± 0.017,-0.029 ± 0.042,-0.0315 ± 0.042,-0.0065 ± 0.015,-0.0275 ± 0.00071,-0.0125 ± 0.00071
